From article PMC5519068 (PLoS ONE, 2017)
“Also recorded” adds a separate entry of the source.

How the values were obtained:
Stat5 activation = tested on: Stat5 activation; design: method as in PMID 22411868; details: MV4-11 cells and AML patient samples; cited from earlier work
[1] = tested on: Flt3 and Fes in primary AML patient samples; design: method as in PMID 20111072; details: cited from earlier work
MOLM-14 cells = experiment: Growth inhibition, CellTiter-Blue viability, 72 h; type: cell-based; details: Homo sapiens, MOLM-14 (Flt3-ITD+), read-out: Growth Suppression in AML Cell Lines (IC50, nM) MOLM-14
Experimental: (§1) Cells were seeded at a density of 100,000 cells per 1.0 ml in 48-well culture plates. Compounds were added to various concentrations while holding the DMSO concentration constant at 0.1%. Cell viability was assessed 72 hours later using the CellTiter-Blue Cell Viability assay (Promega) according to the manufacturer’s protocol and a SpectraMax Multi-Mode Microplate Reader (Molecular Devices). IC50 values were determined by non-linear regression analysis of concentration-response curves using the GraphPad PRISM software package (version 6.0). Apoptosis was determined using the same cell culture conditions and the Apo-ONE Homogeneous Caspase-3/7 Assay (Promega) and the manufacturer’s protocol.
(§2) Fig 2 Fes tyrosine kinase inhibitors induce growth arrest in Flt3-ITD^+ AML cell lines. A) The Flt3-ITD^+ cell lines MV4-11, MOLM-13, and MOLM-14, along with THP-1 (wild-type FLT3) were incubated with each of the kinase inhibitors shown over a range of concentrations, and cell viability was measured 72 h later using the CellTiter-Blue Assay (see Materials and methods). Raw fluorescence data were corrected for background and then normalized to cultures grown in the presence of the DMSO carrier solvent. Each assay condition was performed in triplicate, and results are presented as the mean of the normalized values ± the SD. The resulting dose-response curves were fitted by non-linear regression analysis, and the resulting IC50 values are shown in Table 1.

MOLM-13 cells = experiment: Growth inhibition, CellTiter-Blue viability, 72 h; type: cell-based; details: Homo sapiens, MOLM-13 (Flt3-ITD+), read-out: Growth Suppression in AML Cell Lines (IC50, nM) MOLM-13
Experimental: as §1, §2

MV4-11 cells = experiment: Growth inhibition, CellTiter-Blue viability, 72 h; type: cell-based; details: Homo sapiens, MV4-11 (Flt3-ITD+), read-out: Growth Suppression in AML Cell Lines (IC50, nM) MV4-11
Experimental: as §1, §2

THP-1 cells [2] = experiment: Growth inhibition, CellTiter-Blue viability, 72 h; type: cell-based; details: Homo sapiens, THP-1 (wild-type Flt3), read-out: Growth Suppression in AML Cell Lines (IC50, nM) THP-1
Experimental: as §1, §2

[3] = tested on: T1, Fes in MV4-11 and MOLM-14 cells; experiment: Immunoprecipitation/immunoblot of Fes activation loop phosphorylation (pY713) in AML cells; type: cell-based, human; details: compound at in vitro IC90 for Fes, 16 h (tandutinib: IC90 for Flt3-ITD, 6 h)
T1 construct: endogenous in cells; host or cells: MV4-11 and MOLM-14
Experimental: (§3) AML cells (2.5 x 10^6 in 5 mL) were cultured in the presence of kinase inhibitors or DMSO alone for 6 to 16 hours prior to lysis by sonication in RIPA buffer (50 mM Tris-HCl, pH 7.4, 150 mM NaCl, 1 mM EDTA, 1% Triton X-100, 0.1% SDS, 1% sodium deoxycholate) supplemented with 1 mM sodium orthovanadate, 1 mM sodium fluoride, 5 units/ml Benzonase (Novagen), and SigmaFAST EDTA-free protease inhibitor cocktail (Sigma). Flt3 and Fes were immunoprecipitated from 1 mg of cell lysate with 2 μg of antibody and 25 μL of protein G-Sepharose beads (Life Technologies) overnight at 4°C. Immunoprecipitates were washed three times by resuspension in 1.0 ml of RIPA buffer. Immunoprecipitated proteins were separated by SDS-PAGE, transferred to PVDF membranes and probed with the indicated antibodies followed by alkaline phosphatase-linked secondary antibodies. CDP-Star Western Blot Chemiluminescence Reagent (Perkin-Elmer) was used for detection.
(§4) Fes and Flt3 kinase proteins were then immunoprecipitated from cell lysates, followed by immunoblotting with antibodies to phosphotyrosine (pTyr), the Fes activation loop phosphotyrosine (pY713), as well as the Flt3 and Fes proteins.

[4] = target: T2, recombinant full-length Fes (Homo sapiens, UniProt P07332); experiment: In vitro kinase assay (Z'-LYTE); type: biochemical; details: highest concentration tested 100 μM
T2 construct: in vitro kinase assays using recombinant purified full-length Fes; made in house; host or cells: E. coli
Experimental: Recombinant protein kinase assays were performed using the FRET-based Z’-LYTE Kinase Assay according to the manufacturer’s instructions (Thermo Fisher Scientific). […] The Tyr-2 peptide was used as substrate for all recombinant kinases. Kinases were preincubated with inhibitors for 30 minutes, followed by addition of ATP and peptide substrate for 1 hour. Reactions were quenched by addition of development reagent, followed by incubation for an additional hour prior to fluorescence measurements on a SpectraMax M5 microplate reader. IC50 values were calculated by non-linear regression analysis of the resulting concentration-response curves using GraphPad PRISM.

Flt3-ITD in Ba/F3 cells = details: 100 nM; cited from earlier work
[5] = tested on: Flt3-D835Y in TF-1/Flt3-D835Y cells; experiment: Immunoprecipitation/immunoblot of Flt3-D835Y phosphotyrosine content in TF-1/Flt3-D835Y cells; type: cell-based, human; details: immunoblot, compound at in vitro IC90
Experimental: as §3
(§5) Raw fluorescence data were corrected for background and then normalized to cultures grown in the presence of the DMSO carrier solvent. Each condition was performed in triplicate, and results are presented as the mean of the normalized values ± the SD. The resulting dose-response curves were fitted by non-linear regression analysis for estimation of the IC50 values (see Table 2). […] Fes and Flt3 kinase proteins were then immunoprecipitated from cell lysates followed by immunoblotting with antibodies to phosphotyrosine (pTyr), the Fes activation loop phosphotyrosine (pY713), as well as the Flt3 and Fes proteins.

[6] = tested on: TF-1 cells expressing Flt3-WT; experiment: Inhibitor sensitivity of TF-1 cell populations, CellTiter-Blue, 72 h; type: cell-based; details: Homo sapiens, TF-1, 72 h, read-out: Inhibitor sensitivity of TF-1 Cell Populations (IC50, nM) Flt3-WT
Experimental: as §1
(§6) For each retroviral transduction, TF-1 cells (1 x 10^6) were suspended in 5 mL of undiluted viral supernatant and plated in one well of a 6-well tissue culture dish. Polybrene (Sigma) was added to a final concentration of 4 μg/mL and the TF-1 cells were centrifuged at 1000 x g for 3 hours to enhance retroviral mediated gene transfer. After centrifugation, the virus was removed and replaced with fresh medium.
as §5

[7] = tested on: Flt3-ITD+ AML cell lines (MV4-11, MOLM-13, MOLM-14); experiment: Growth inhibition across Flt3-ITD+ AML cell lines; type: cell-based; details: Homo sapiens, 72 h, read-out: IC50 values for growth inhibition, range over the Flt3-ITD+ AML cell lines
Experimental: as §1
Raw fluorescence data were corrected for background and then normalized to cultures grown in the presence of the DMSO carrier solvent. Each assay condition was performed in triplicate, and results are presented as the mean of the normalized values ± the SD.

[8] = tested on: Flt3-ITD in TF-1/Flt3-ITD cells; experiment: Immunoprecipitation/immunoblot of Flt3 phosphotyrosine content in TF-1/Flt3-ITD cells; type: cell-based, human; details: compound at in vitro IC90 for Fes, 16 h (tandutinib: IC90 for Flt3-ITD, 6 h)
Experimental: as §3, §5

[9] = tested on: TF-1 cells transduced with an empty retroviral vector (Control); experiment: Inhibitor sensitivity of TF-1 cell populations, CellTiter-Blue, 72 h; type: cell-based, human
Experimental: as §1, §6, §5

TF-1/Flt3-ITD cells = experiment: as above; type: cell-based, human; details: Homo sapiens, TF-1, 72 h, read-out: Inhibitor sensitivity of TF-1 Cell Populations (IC50, nM) Flt3-ITD
Experimental: as §1, §6, §5

TF-1/Flt3-D835Y cells = experiment: as above; type: cell-based, human; details: Homo sapiens, TF-1, 72 h, read-out: Inhibitor sensitivity of TF-1 Cell Populations (IC50, nM) Flt3-D835Y
Experimental: as §1, §6, §5

[10] = tested on: Flt3-ITD-transformed Ba/F3 cells; details: cited from earlier work
[11] = tested on: Flt3-ITD+ AML cell lines (MV4-11, MOLM-13, MOLM-14); experiment: Apoptosis, Apo-ONE Caspase 3/7 assay; type: cell-based, human; details: 1.0 μM, 72 h
Experimental: as §1
Cell viability was measured in parallel using the CellTiter-Blue assay, and the resulting data are presented as the ratio of Caspase activity to cell viability as per the manufacturer’s protocol. All assays were performed in triplicate, and data are presented as the mean ratios ± SD. Asterisks indicate statistical significance between each treatment group vs. the corresponding DMSO control group with p < 0.05 (Student’s t-test).

[12] = tested on: Flt3-ITD in MV4-11 and MOLM-14 cells; experiment: Immunoprecipitation/immunoblot of Flt3 phosphotyrosine content in AML cells; type: cell-based, human; details: compound at in vitro IC90 for Fes, 16 h (tandutinib: IC90 for Flt3-ITD, 6 h)
Experimental: as §3, §4

[13] = tested on: Fes in TF-1/Flt3-ITD cells; experiment: Immunoprecipitation/immunoblot of Fes pY713 in TF-1/Flt3-ITD cells; type: cell-based, human; details: compound at in vitro IC90 for Fes, 16 h (tandutinib: IC90 for Flt3-ITD, 6 h)
Experimental: as §3, §5

THP-1 cells [14] = experiment: Apoptosis, Apo-ONE Caspase 3/7 assay; type: cell-based, human; details: 1.0 μM, 72 h
Experimental: as §1
Fig 3 Fes tyrosine kinase inhibitors induce apoptosis in Flt3-ITD^+ AML cell lines. The Flt3-ITD^+ cell lines MV4-11, MOLM-13, and MOLM-14, along with THP-1 (wild-type FLT3), were incubated with each of kinase inhibitors shown at a final concentration of 1 μM and apoptosis was measured 72 h later using the Apo-ONE Caspase 3/7 Assay (Promega). Cell viability was measured in parallel using the CellTiter-Blue assay, and the resulting data are presented as the ratio of Caspase activity to cell viability as per the manufacturer’s protocol. All assays were performed in triplicate, and data are presented as the mean ratios ± SD. […]

T2 sequence (P07332 whole entry): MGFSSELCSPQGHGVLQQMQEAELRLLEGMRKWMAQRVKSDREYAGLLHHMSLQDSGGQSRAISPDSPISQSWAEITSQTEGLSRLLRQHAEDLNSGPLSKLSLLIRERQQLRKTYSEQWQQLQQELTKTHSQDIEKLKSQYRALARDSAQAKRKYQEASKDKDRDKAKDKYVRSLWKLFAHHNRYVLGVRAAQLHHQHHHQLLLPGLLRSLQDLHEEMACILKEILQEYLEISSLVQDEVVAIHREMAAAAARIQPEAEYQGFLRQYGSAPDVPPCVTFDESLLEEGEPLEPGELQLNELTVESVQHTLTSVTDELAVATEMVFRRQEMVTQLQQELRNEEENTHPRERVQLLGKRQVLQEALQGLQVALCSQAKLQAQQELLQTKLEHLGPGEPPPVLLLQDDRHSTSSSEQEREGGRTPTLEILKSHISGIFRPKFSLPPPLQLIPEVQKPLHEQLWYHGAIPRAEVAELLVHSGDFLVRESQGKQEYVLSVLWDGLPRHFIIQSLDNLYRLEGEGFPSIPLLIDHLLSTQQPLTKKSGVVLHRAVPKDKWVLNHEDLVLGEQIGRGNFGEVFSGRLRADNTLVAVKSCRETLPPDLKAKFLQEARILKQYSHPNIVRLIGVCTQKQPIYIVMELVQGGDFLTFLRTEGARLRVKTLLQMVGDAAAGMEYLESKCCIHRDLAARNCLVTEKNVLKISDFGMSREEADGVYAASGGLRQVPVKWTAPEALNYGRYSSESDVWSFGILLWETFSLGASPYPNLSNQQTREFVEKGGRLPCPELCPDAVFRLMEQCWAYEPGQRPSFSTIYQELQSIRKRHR

SMILES: Cc1nc(Nc2ncc(C(=O)Nc3c(C)cccc3Cl)s2)cc(N2CCN(CCO)CC2)n1 [dasatinib]
- Effect on Stat5 activation (Stat5 activation): reduced Stat5 activation

SMILES: Cc1cc(C)c(/C=C2\C(=O)Nc3ccccc32)[nH]1 [SU5416]
- Effect on Flt3 and Fes activation in primary AML patient samples [1]: reduced both Flt3 and Fes activation

SMILES: COc1cc2c(N3CCN(C(=O)Nc4ccc(OC(C)C)cc4)CC3)ncnc2cc1OCCCN1CCCCC1 [Tandutinib, reference compound]
- IC50 (MOLM-14 cells): 232 nM
- IC50 (MOLM-13 cells): 532 nM
- IC50 (MV4-11 cells): 502 nM
- IC50 (THP-1 cells [2]): > 3000 nM
- Inhibition of Fes activation loop phosphorylation in MV4-11 and MOLM-14 cells [3]: little effect
- Effect on Fes kinase activity in vitro (words) [4]: does not inhibit Fes in vitro or in cells
- Effect on Fes kinase activity in vitro (words) ([4]; listed as tandutinib): no effect

SMILES: COc1cc(N2CCC(N3CCN(C)CC3)CC2)ccc1Nc1ncc(Cl)c(Nc2ccccc2S(=O)(=O)C(C)C)n1 [TAE-684, reference compound]
- Effect on Flt3-ITD phosphotyrosine content in Ba/F3 cells expressing Flt3-ITD (Flt3-ITD in Ba/F3 cells): no effect
- Inhibition of Flt3-D835Y phosphotyrosine content in TF-1/Flt3-D835Y cells [5]: complete inhibition; also recorded: completely suppressed
- IC50 (MOLM-14 cells): 74 nM
- IC50 (MOLM-13 cells): 166 nM
- IC50 (MV4-11 cells): 123 nM
- IC50 (THP-1 cells [2]): > 3000 nM
- IC50 [6]: > 1000 nM
- IC50 [7]: 19 to 166 nM
- Inhibition of Flt3-ITD phosphotyrosine content in TF-1/Flt3-ITD cells [8]: no effect on Flt3-ITD; also recorded: did not affect Flt3-ITD phosphotyrosine content
- Inhibition of Fes activation loop phosphorylation in MV4-11 and MOLM-14 cells [3]: did inhibit Fes
- IC50 ([9]; Homo sapiens, TF-1, empty vector control, 72 h): > 1000 nM
- Nonspecific cytotoxicity in TF-1 cells expressing wild-type Flt3 or vector control cells ([9]; TF-1/Flt3-WT and vector control cells): some nonspecific cytotoxicity in the low micromolar range
- IC50 (TF-1/Flt3-ITD cells): 82 nM
- IC50 (TF-1/Flt3-D835Y cells): 83 nM
- Effect on Flt3-ITD-transformed Ba/F3 cell proliferation [10]: no effect
- Apoptosis (Caspase 3/7 activity) in Flt3-ITD+ AML cell lines [11]: equal to or greater than that observed with tandutinib
- Inhibition of Flt3-ITD phosphotyrosine content in MV4-11 and MOLM-14 cells [12]: no effect
- Inhibition of Fes activation loop phosphorylation in TF-1/Flt3-ITD cells [13]: inhibited Fes

SMILES: CN[C@@H]1C[C@H]2O[C@@](C)([C@@H]1OC)n1c3ccccc3c3c4c(c5c6ccccc6n2c5c31)C(=O)NC4 [staurosporine, reference compound]
- Apoptosis (Caspase 3/7 activity) in THP-1 cells (THP-1 cells [14]): strong apoptotic response
- Apoptosis (Caspase 3/7 activity) in Flt3-ITD+ AML cell lines [11]: strong apoptotic response
